{
  "source": "patent US9645154B2",
  "about": "“Method for detecting cancer cell” (ARKRAY, Inc., priority 2010, dated 2017)",
  "key": {"Blood cells [1]": {"tested_on": "Blood cells", "test": "Labeled amino acid incorporation, fluorescence microscopy image analysis (false-positive/negative rate)", "format": "cell-based, human", "conditions": "hemolyzed, 30 min, 37° C.; for Negative rate (Blood cells) / Positive rate (Blood cells): 1 mM", "source_text": "(§1) Blood was collected from a human subject using a vacuum blood collection tube (with EDTA•2K). Blood cells were separated using HetaSep (STEMCELL Technologies) in accordance with manufacturer's instructions.\nWhen performing the hemolyzing treatment, the blood cell fraction collected as described above was hemolyzed using ammonium chloride (STEMCELL Technologies) at room temperature according to the manufacture's manuals.\nThe number of the cells was counted for each cell line using a hemacytometer in accordance with the conventional method, and then 10^5 to 10^6 cells per sample (cell suspension) was aliquoted. The sample was centrifuged to remove the supernatant. Subsequently, H-Ala(2-Bacd)-OH (Watanabe Chemical Industries, Ltd.) was added thereto (at the final concentration given in Table 5 or 6), and the cells were suspended well. After the reaction, Dulbecco's PBS (−) was added to the mixture, and the resultant was centrifuged to remove the supernatant. The cells were resuspended with Dulbecco's PBS and centrifuged, and the supernatant was removed again. The steps of resuspending cells with Dulbecco's PBS (−), centrifuging and removing the supernatant were then repeated 2 to 3 times, thereby washing the cells thoroughly. The cells were resuspended with Dulbecco's PBS (−), the concentration thereof was adjusted, and then added dropwise to a 384-well plate. The plate was centrifuged to spin down the cells. The image was captured with a fluorescence microscope (Nikon Corp.) using B-2A filter set (Nikon Corp.). The B-2A set covers the same wavelengths as those in Example 2. The acquired images were analyzed using an image analysis software NIS-ELEMENTS (trade name, Nikon Corp.) to evaluate the fluorescence intensity of the cell.\nWith regard to the labeling substance, H-Lys(DMACA)-OH (Watanabe Chemical Industries, Ltd.) or H-Glu(EDANS)—OH (Watanabe Chemical Industries, Ltd.) was used instead of using H-Ala(2-Bacd)-OH in the staining of Example 3.\n(§2) Further, the fluorescence intensity of the cells was evaluated in a manner similar to Example 2, except the fluorescence filter covering the wavelengths of EX (excitation wavelength) of 365/±10, DM of 400 or longer and BA (fluorescence wavelength) of 470±20 was used based on the fluorescent property of the fluorescent substances."}, "[2]": {"tested_on": "human gastric cancer cell line SNU-1", "test": "Labeled amino acid incorporation, fluorescence microscopy image analysis (positive rate)", "format": "cell-based", "conditions": "1 mM; hemolyzed, 30 min, 37° C.", "source_text": "(§3) In accordance with the conventional method, cultured human prostate cancer cell line PC3 (DS Pharma Biomedical Co., Ltd.) was harvested with trypsin (Invitrogen). The human gastric cancer cell line SNU-1 (ATCC), which is a suspension cell line, was directly harvested without any trypsin treatment. The cell suspension of the harvested cancer cells was centrifuged, and the supernatant was removed. The cells were resuspended with Dulbecco's PBS (−) (Nissui Pharmaceutical Co., Ltd.) and centrifuged, and the supernatant was removed again.\nThe number of the cells was counted for each cell line using a hemacytometer in accordance with the conventional method, and then 10^5 to 10^6 cells per sample (cell suspension) was aliquoted. The sample was centrifuged to remove the supernatant. […] The image was captured with a fluorescence microscope (Nikon Corp.) using B-2A filter set (Nikon Corp.). […] The acquired images were analyzed using an image analysis software NIS-ELEMENTS (trade name, Nikon Corp.) to evaluate the fluorescence intensity of the cell. […]\nas §2"}, "[3]": {"tested_on": "human fibrosarcoma cell line HT1080", "test": "Labeled sugar incorporation, fluorescence microscopy image analysis (positive rate)", "format": "cell-based", "conditions": "10 mM, 5 min, 23° C.", "source_text": "as §3, with “fibrosarcoma” for “prostate cancer”, “HT1080” for “PC3”\n(§4) When performing the hemolyzing treatment, the blood cell fraction collected as described above was hemolyzed using ammonium chloride (STEMCELL Technologies) according to the manufacture's manuals.\n(§5) The number of the cells was counted for each cell line using a hemacytometer in accordance with the conventional method, and then 10^5 to 10^6 cells per sample (cell suspension) was aliquoted. Each of the sample was centrifuged to remove the supernatant. Subsequently, 2-NBDG (Wako Pure Chemical Industries, Ltd.; at the final concentration given in Table 3 or 4) dissolved in Dulbecco's PBS (−) was added thereto, and the cells were suspended well. After the reaction, Dulbecco's PBS (−) was added to the mixture, and the resultant was centrifuged to remove the supernatant. The cells were resuspended with Dulbecco's PBS (−) and centrifuged, and the supernatant was removed again. The steps of resuspending cells with Dulbecco's PBS (−), centrifuging and removing the supernatant were then repeated 2 to 3 times, thereby washing the cells thoroughly. The cells were resuspended with Dulbecco's PBS (−), the concentration thereof was adjusted, and then added dropwise to a 384-well plate. The plate was centrifuged to spin down the cells. The image was captured with a fluorescence microscope (Nikon Corp.) using B-2A filter combination (Nikon Corp.). The B-2A set covers the following wavelengths. EX (excitation wavelength): 475±15 nm, DM: 505 nm or longer, BA (fluorescence wavelength) 520 nm or longer.\n(§6) The acquired images were analyzed using an image analysis software NIS-ELEMENTS (trade name, Nikon Corp.) to evaluate the fluorescence intensity of the cell. […]\nIn a manner similar to Example 2, each of human breast adenocarcinoma cells (cell line name: MCF-7; DS Pharma Biomedical Co., Ltd.), human colon adenocarcinoma cells (cell line name: SW620; DS Pharma Biomedical Co., Ltd.), human prostate cancer cells (cell line name: PC3; DS Pharma Biomedical Co., Ltd.), human alveolar epithelial cancer cells (cell line name: NCI-H358; DS Pharma Biomedical Co., Ltd.), human gastric cancer cells (cell line name: SNU-1; ATCC) and human fibrosarcoma cells (cell line name: HT1080; DS Pharma Biomedical Co., Ltd.) was detected with the labeled sugar (2-NBDG)."}, "Blood cells [4]": {"tested_on": "Blood cells", "test": "Labeled sugar incorporation, fluorescence microscopy image analysis (false-positive/negative rate)", "format": "cell-based, human", "conditions": "10 mM, 5 min, 23° C.", "source_text": "as §1, §4, §5, §6"}},
  "data": [
    {"smiles": "N[C@@H](CCC(=O)NCCNc1cccc2c(S(=O)(=O)O)cccc12)C(=O)O", "note": "[H-Glu(EDANS)-OH]", "values": [
      {"measurement": "Negative rate (Blood cells)", "setting": "Blood cells [1]", "value": 99.4, "unit": "%"},
      {"measurement": "Positive rate (Blood cells)", "setting": "Blood cells [1]", "value": 0.6, "unit": "%"},
      {"measurement": "selectivity for a cancer cell in view of a negative rate", "setting": "Blood cells [1]; gastric cancer cell line versus blood cells, Table 15", "value": "high selectivity"},
      {"measurement": "Positive rate (Gastric cancer cell line)", "setting": "[2]", "value": 56.9, "unit": "%"}
    ]},
    {"smiles": "O=[N+]([O-])c1ccc(NCC2OC(O)C(O)C(O)[C@@H]2O)c2nonc12", "note": "(stereo partly drawn) [6-NBDG, 6-[N-(7-nitrobenz-2-oxa-1,3-diazol-4-yl)amino]-6-deoxy-D-glucose]", "values": [
      {"measurement": "Positive rate (Fibrosarcoma cell line)", "setting": "[3]; hemolyzed", "value": 78.7, "unit": "%"},
      {"measurement": "Positive rate (Fibrosarcoma cell line)", "setting": "[3]; not hemolyzed", "value": 71.1, "unit": "%"},
      {"measurement": "Negative rate (Blood cells (fresh blood))", "setting": "Blood cells [4]; hemolyzed", "value": 99.1, "unit": "%"},
      {"measurement": "Positive rate (Blood cells (fresh blood))", "setting": "Blood cells [4]; hemolyzed", "value": 0.9, "unit": "%"},
      {"measurement": "Negative rate (Blood cells (fresh blood))", "setting": "Blood cells [4]; not hemolyzed", "value": 99.1, "unit": "%"},
      {"measurement": "Positive rate (Blood cells (fresh blood))", "setting": "Blood cells [4]; not hemolyzed", "value": 0.9, "unit": "%"}
    ]},
    {"smiles": "CN(C)c1ccc2c(CC(=O)NCCCC[C@H](N)C(=O)O)cc(=O)oc2c1", "note": "[H-Lys(DMACA)-OH]", "values": [
      {"measurement": "Negative rate (Blood cells)", "setting": "Blood cells [1]", "value": 82.3, "unit": "%"},
      {"measurement": "Positive rate (Blood cells)", "setting": "Blood cells [1]", "value": 17.7, "unit": "%"},
      {"measurement": "Positive rate (Gastric cancer cell line)", "setting": "[2]", "value": 86.1, "unit": "%"}
    ]}
  ]
}
